Results from patent US20020192754A1 (MAX-PLANCK-GESELLSCHAFT E.V., priority 1999, published 2002).
Where two headings read alike, the source gives them in different places. Where a SMILES comes first, the peptide text is derived from it. [ ]: non-standard residue; d: D form. The star is where a group is joined. Sta = CC(C)C[C@H](N)[C@@H](O)CC(=O)O; Isovaleryl = CC(C)CC(=O)*; CH2Cl = ClC*

How the values were obtained:
human GzmK [1] = target: T1, human GzmK (Homo sapiens, UniProt P49863); assay: Inhibition of human GzmK by various inhibitors (residual activity, this study); format: biochemical
T1 construct: Met-Glu N-terminal helper dipeptide (pro-dipeptide) (N, cleaved yes); made in house
T1 sequence (P49863 27-264): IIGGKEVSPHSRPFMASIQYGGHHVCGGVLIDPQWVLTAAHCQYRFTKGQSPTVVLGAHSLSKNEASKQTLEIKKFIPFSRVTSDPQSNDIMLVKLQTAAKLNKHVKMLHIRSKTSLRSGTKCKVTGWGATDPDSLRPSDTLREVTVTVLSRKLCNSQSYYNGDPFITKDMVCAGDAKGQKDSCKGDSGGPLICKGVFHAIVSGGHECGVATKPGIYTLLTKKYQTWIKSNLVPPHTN
Experimental: These activity tests were performed in wells of a 96-cup tray with respectively 150 μl of the sample volume.
The thiobenzylester substrates and Ellman's reagency were diluted to end concentrations of 0.3 mM in the test buffer (150 mM Tris, 50 mM NaCl, 0.01% Triton X-100, pH 7.6). The various granzyme preparations were likewise diluted to 3-15 nM in the test buffer. The color change occurring with the conversion of the substrates was measured at 405 nm and room temperature over 5 minutes in the ELISA reader. The difference in absorptions at the beginning and after 5 minutes as it relates to time was used to calculate the conversion rate.
After a 60-minute preincubation at RT the residual activity was ascertained in triple batches. Initial activities were determined in buffers containing the same proportion of organic solvents. […] Molar concentrations of active aprotinine were ascertained with the use of activity-titrated bovine trypsin.

human GzmK [2] = target: T1, human GzmK; conditions: cited from earlier work
[3] = inhibitor 0.1 mM, I:E 33 x 10^3, 3 nM human GzmK, 60-minute preincubation at RT

Compound: CC(C)CC(=O)N[C@H](C(=O)N[C@H](C(=O)N[C@@H](CC(C)C)[C@@H](O)CC(=O)N[C@@H](C)C(=O)N[C@@H](CC(C)C)[C@@H](O)CC(=O)O)C(C)C)C(C)C [Pepstatin A] (Isovaleryl-VV[Sta]A[Sta]-OH)
- Residual Activity (%) This study (human GzmK [1]; inhibitor 0.001 mM, I:E 0.3 x 10^3, 3 nM human GzmK, 60-minute preincubation at RT): 93.0%
- Residual Activity (%) Babé et al., Bio. Appl. Bioch. 27:117-124 (1998) (human GzmK [2]; table row: inhibitor 0.001 mM): 100%

Compound: CC(=O)N[C@@H](CC(C)C)C(=O)N[C@@H](CC(C)C)C(=O)N[C@H](C=O)CCCNC(=N)N [Leupeptin]
- remaining activity at 200 µM (human GzmK [1]; inhibitor 0.2 mM, I:E 67 x 10^3, 3 nM human GzmK, 60-minute preincubation at RT): 78%
- Residual Activity (%) Babé et al., Bio. Appl. Bioch. 27:117-124 (1998) (human GzmK [2]; table row: inhibitor 0.2 mM): 50%

Compound: O=C(O)CN(CCN(CC(=O)O)CC(=O)O)CC(=O)O [EDTA]
- Residual Activity (%) This study (human GzmK [1]): 106.4%
- Residual Activity (%) Babé et al., Bio. Appl. Bioch. 27:117-124 (1998) (human GzmK [2]): 100%

Compound: N=C(N)c1ccccc1 [Benzamidine]
- remaining activity at 27000 µM (human GzmK [1]; inhibitor 27.0 mM, I:E 9000 x 10^3, 3 nM human GzmK, 60-minute preincubation at RT): 43.1%
- Residual Activity (%) Babé et al., Bio. Appl. Bioch. 27:117-124 (1998) (human GzmK [2]; table row: inhibitor 27.0 mM): 50%

Compound: Cl.NCCc1ccc(S(=O)(=O)F)cc1 [PefablocSC]
- Residual Activity (%) This study (human GzmK [1]; inhibitor 0.5 mM, I:E 170 x 10^3, 3 nM human GzmK, 60-minute preincubation at RT): 26.0%
- Residual Activity (%) This study (human GzmK [1]; inhibitor 1.0 mM, I:E 330 x 10^3, 3 nM human GzmK, 60-minute preincubation at RT): 5.7%

Compound: N-tosylphenylalanine chloromethylketone [TPCK]
- Residual Activity (%) This study (human GzmK [1]; inhibitor 0.05 mM, I:E 17 x 10^3, 3 nM human GzmK, 60-minute preincubation at RT): 96.0%
- Residual Activity (%) Babé et al., Bio. Appl. Bioch. 27:117-124 (1998) (human GzmK [2]; table row: inhibitor 0.05 mM): 95%

Compound: NC(N)=NCCC[C@H](NC(=O)CNC(=O)[C@@H](N)CCC(=O)O)C(=O)CCl [EGR-CMK] (H-Glu-Gly-Arg-CH2Cl)
- Residual Activity (%) This study (human GzmK [1]; [3]): 54.8%

Compound: N-tosyllysine chloromethylketone [TLCK]
- Residual Activity (%) This study (human GzmK [1]; [3]): 91.0%
- Residual Activity (%) Babé et al., Bio. Appl. Bioch. 27:117-124 (1998) (human GzmK [2]; table row: inhibitor 0.1 mM): 0%

Compound: Aprotinine
- Residual Activity (%) This study (human GzmK [1]; inhibitor 0.015 mM, I:E 5 x 10^3, 3 nM human GzmK, 60-minute preincubation at RT): 8.6%
- Residual Activity (%) Babé et al., Bio. Appl. Bioch. 27:117-124 (1998) (human GzmK [2]; table row: inhibitor 0.015 mM): 0%

Compound: NC(N)=NCCC[C@H](NC(=O)[C@@H]1CCCN1C(=O)[C@H](N)Cc1ccccc1)C(=O)CCl [FPR-CMK]
- Residual Activity (%) This study (human GzmK [1]; [3]): 0.0%
